Assays:
Experiment in all cases: relative viability (nuclei count vs DMSO), 5 days (fraction); higher = more cells survive
Kobe2602 + Navitoclax = compound: C1=CC(=CC=C1NC(=S)NNC2=C(C=C(C=C2[N+](=O)[O-])C(F)(F)F)[N+](=O)[O-])F [Kobe2602] + CC1(C)CCC(c2ccc(Cl)cc2)=C(CN2CCN(c3ccc(C(=O)NS(=O)(=O)c4ccc(N[C@H](CCN5CCOCC5)CSc5ccccc5)c(S(=O)(=O)C(F)(F)F)c4)cc3)CC2)C1 [Navitoclax] (partner 0.5 µM)
Procedure, shortened: (§1)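 Medians of duplicate plates are given as relative viability. That measure is the nuclei count in treated wells divided by the count in vehicle wells. Counts were taken on 4× images of lung cancer cell lines in 1536-well plates, 5 days after pin-tool dosing the day after seeding with one drug alone or a fixed anchor-drug dose plus five library-drug doses (not always all listed) in √10 steps.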

Kobe2602 + Phenformin = compound: C1=CC(=CC=C1NC(=S)NNC2=C(C=C(C=C2[N+](=O)[O-])C(F)(F)F)[N+](=O)[O-])F [Kobe2602] + N=C(N)NC(=N)NCCc1ccccc1 [Phenformin] (partner 250 µM)
Procedure, shortened: as §1

[1] = compound: COc1cc2nccc(Oc3ccc(NC(=O)C4(C(=O)Nc5ccc(F)cc5)CC4)cc3)c2cc1OC [Cabozantinib] + CC(=O)Nc1cccc(-n2c(=O)n(C3CC3)c(=O)c3c(Nc4ccc(I)cc4F)n(C)c(=O)c(C)c32)c1 [Trametinib] (partner 0.02 µM)
Procedure, shortened: as §1

[2] = compound: COc1cc2nccc(Oc3ccc(NC(=O)C4(C(=O)Nc5ccc(F)cc5)CC4)cc3)c2cc1OC [Cabozantinib] + CCNC(=O)c1noc(-c2cc(C(C)C)c(O)cc2O)c1-c1ccc(CN2CCOCC2)cc1 [Luminespib] (partner 0.01 µM)
Procedure, shortened: as §1

Row | Cell Line | relative viability (Kobe2602 + Navitoclax; first compound 0.2 µM) | relative viability (Kobe2602 + Navitoclax; first compound 0.6325 µM) | relative viability (Kobe2602 + Navitoclax; first compound 2 µM) | relative viability (Kobe2602 + Navitoclax; first compound 6.325 µM) | relative viability (Kobe2602 + Navitoclax; first compound 20 µM) | relative viability (Kobe2602 + Phenformin; first compound 0.2 µM) | relative viability (Kobe2602 + Phenformin; first compound 0.6325 µM) | relative viability (Kobe2602 + Phenformin; first compound 2 µM) | relative viability (Kobe2602 + Phenformin; first compound 6.325 µM) | relative viability (Kobe2602 + Phenformin; first compound 20 µM) | relative viability ([1]; first compound 0.02 µM) | relative viability ([1]; first compound 0.06325 µM) | relative viability ([1]; first compound 0.2 µM) | relative viability ([1]; first compound 0.6325 µM) | relative viability ([1]; first compound 2 µM) | relative viability ([2]; first compound 0.02 µM) | relative viability ([2]; first compound 0.06325 µM) | relative viability ([2]; first compound 0.2 µM) | relative viability ([2]; first compound 0.6325 µM) | relative viability ([2]; first compound 2 µM)
1 | SK-MES-1 | 1.14 | 1.23 | 1.09 | 1.19 | 1.23 | 0.676 | 0.715 | 0.683 | 0.589 | 0.455 | 0.605 | 0.666 | 0.615 | 0.535 | 0.533 | 0.835 | 1 | 0.9 | 0.875 | 0.729
2 | HCC-366 | 1.07 | 0.98 | 0.832 | 1.06 | 1.06 | 0.669 | 0.642 | 0.618 | 0.584 | 0.61 | 0.409 | 0.334 | 0.35 | 0.285 | 0.272 |  |  |  |  | 
3 | NCI-H3122 | 1.05 | 0.971 | 1.02 | 1.02 | 1.03 | 0.425 | 0.402 | 0.378 | 0.394 | 0.364 | 0.192 | 0.241 | 0.238 | 0.238 | 0.281 | 0.111 | 0.102 | 0.0937 | 0.0876 | 0.101
4 | COR-L 105 | 0.525 | 0.756 | 0.786 | 0.909 | 0.784 | 0.487 | 0.491 | 0.422 | 0.542 | 0.494 | 0.422 | 0.377 | 0.4 | 0.405 | 0.481 | 0.924 | 0.823 |  | 0.915 | 0.609
5 | 201T | 1.23 | 1.18 | 1.18 | 1.3 | 1.29 | 0.463 | 0.449 | 0.425 | 0.394 | 0.405 | 0.71 | 0.731 | 0.686 | 0.729 | 0.727 | 1.12 | 1.08 | 1.04 | 1.06 | 1.03
6 | NCI-H2228 | 1.08 | 0.621 | 0.69 | 0.743 | 0.841 | 0.35 | 0.449 | 0.359 | 0.295 | 0.361 | 0.4 | 0.61 | 0.594 | 0.704 | 0.479 | 0.162 | 0.167 | 0.175 | 0.122 | 0.134
7 | LC-2-ad | 0.378 | 0.374 | 0.453 | 0.371 | 0.404 | 0.567 | 0.618 | 0.512 | 0.586 | 0.55 | 0.924 | 0.948 | 0.92 | 0.761 | 0.48 |  | 1.1 | 1.03 | 0.914 | 0.956
8 | NCI-H2087 | 0.959 | 0.934 | 1.01 | 1.03 | 0.849 | 0.437 | 0.47 | 0.462 | 0.471 | 0.438 | 0.166 | 0.258 | 0.216 | 0.195 | 0.209 | 0.163 | 0.185 | 0.193 | 0.168 | 0.158
9 | LK-2 | 0.899 | 1.06 | 0.815 | 0.825 | 0.891 | 0.461 | 0.579 | 0.489 | 0.624 | 0.516 | 0.678 | 0.836 | 0.717 | 0.863 | 0.781 |  | 0.176 |  | 0.198 | 0.196
10 | H3255 | 0.521 | 0.562 | 0.516 | 0.558 | 0.548 | 0.339 | 0.359 | 0.422 | 0.315 | 0.334 | 0.687 | 0.639 |  | 0.749 | 0.64 | 0.885 | 1.13 |  | 0.905 | 0.893
11 | NCI-H2347 | 0.697 | 0.82 | 0.753 | 0.789 | 0.807 | 0.529 | 0.48 | 0.375 | 0.469 | 0.407 | 0.252 | 0.296 | 0.269 | 0.249 | 0.268 | 0.411 | 0.661 | 0.778 |  | 0.515
12 | CAL-12T | 1.2 | 1.25 | 1.31 | 1.39 | 1.2 | 0.586 | 0.597 | 0.579 | 0.538 | 0.449 | 0.331 | 0.357 | 0.33 | 0.371 | 0.365 | 0.832 | 0.574 | 0.37 | 0.581 | 1.37
13 | A-427 | 1 | 0.945 | 0.934 | 0.97 | 0.459 | 0.416 | 0.413 | 0.364 | 0.303 | 0.307 | 0.729 | 0.801 | 0.772 | 0.762 | 0.743 | 1.23 | 1.15 | 1.03 | 0.912 | 0.857
14 | HARA | 1.22 | 1.19 | 1.16 | 1.06 | 1.11 | 0.468 | 0.506 | 0.465 | 0.467 | 0.478 | 0.749 | 0.772 |  | 0.883 | 0.633 | 0.722 | 0.421 | 0.615 | 0.92 | 0.548
15 | NCI-H2170 | 0.65 | 0.597 | 0.56 | 0.57 | 0.622 | 0.414 | 0.475 | 0.423 | 0.406 | 0.403 | 0.927 | 0.921 | 0.896 | 0.922 | 0.95 | 0.729 | 0.952 | 0.587 | 0.857 | 0.849
16 | NCI-H1623 |  |  |  |  |  | 0.633 | 0.571 | 0.563 | 0.555 | 0.589 |  |  |  |  |  | 0.53 | 0.497 | 0.47 | 0.446 | 0.492
17 | NCI-H2023 | 0.976 | 1.11 | 0.892 | 0.927 | 0.917 | 0.419 | 0.442 | 0.432 | 0.352 | 0.244 | 0.497 | 0.707 | 0.445 | 0.381 | 0.293 | 0.839 | 0.68 | 0.635 | 0.641 | 0.539

Reference: the supplement of paper PMC10307832
